Test results from patent US20230382889A1 (Volastra Therapeutics, Inc., priority 2022, published 2023).
Where two headings read alike, the source gives them in different places.

Experiments:
[1] = molecular target: hKIF18A (1-374) (Homo sapiens (Human), UniProt Q8NI77); assay: Inhibition of KIF18A microtubule-dependent ATPase activity (ADP-Glo); assay type: biochemical; settings: 4 nM hKIF18A (1-374)
In short: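 Reaction was started with pre-formed microtubules and ATP (0.2 mg/mL and 2.0 mM in the added mix) and run 60 min at 28 °C. ADP was read by ADP-Glo luminescence, and IC50 came from a four-parameter fit of % inhibition.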

[2] = system: HCC15 cells; assay: Cell viability of KIF18a-sensitive cell lines, HCC15 (Cell Titre-Glo, 7 days); assay type: cell-based; settings: read-out: HCC15 IC50
Experimental: (§1) Cell lines were seeded as follows 24 hours before compound treatment: HCC15 (Korean Cell Line Bank) 600 cell/well, 95 μL of RPMI-1640 media supplemented with 100 units/mL penicillin, 100 units/mL streptomycin and 10% FBS; NIH:OVCAR-3 (ATCC), 1000 cell/well, 95 μL of RPMI-1640 media supplemented with 100 units/mL penicillin, 100 units/mL streptomycin, 0.01 mg/mL bovine insulin, and 20% FBS; JIMT-1 (Addexbio) 1000 cell/well, 95 μL of DMEM media supplemented with 100 units/mL penicillin, 100 units/mL streptomycin, and 10% FBS.
(§2) Test compounds were added to cells in a 20× dilution scheme by adding 5 μL of serially diluted compound to the plate, and the treated cells were incubated for an additional 7 days in a 37° C., 5% CO2 incubator. DMSO was used as the negative control (0% effect), and wells omitting cells were used as the positive control (100% effect). The cells were incubated for seven days, and cell viability determined via the Promega Cell Titre-Glo® Assay kit. Luminescence units were converted to ATP concentrations via an ATP standard curve (10 point, 2-fold dilution from 5 uM). % Inhibition was calculated for each well as: ([max−min]−[test−min])/[max−min]. IC50 values were calculated from concentration vs. % Inhibition data via a four-parameter variable slope model.

[3] = system: JIMT-1 cells; assay: Cell viability of KIF18a-sensitive cell lines, JIMT-1 (Cell Titre-Glo, 7 days); assay type: cell-based; settings: read-out: JIMT-1 IC50
Experimental: as §1, §2

[4] = system: NIH:OVCAR-3 cells; assay: Cell viability of KIF18a-sensitive cell lines, NIH:OVCAR-3 (Cell Titre-Glo, 7 days); assay type: cell-based; settings: read-out: NIH:OVCAR3 IC50
Experimental: as §1, §2

[5] = molecular target: KIF18a-microtubule complex (Homo sapiens (Human), UniProt Q8NI77); assay: Binding kinetics to KIF18a-microtubule complex (global progress curve analysis)
Experimental: Compound binding kinetics parameters (kon and koff) were determined by the method of global progress curve analysis (GPCA). […] ADP product levels were determined by the Promega® ADP-Glo assay.

[6] = Homo sapiens, 168 h, JIMT-1, 7 days
[7] = Homo sapiens, OVCAR-3, 168 h, NIH:OVCAR3, 7 days

Chain of hKIF18A (1-374) (Q8NI77 1-374): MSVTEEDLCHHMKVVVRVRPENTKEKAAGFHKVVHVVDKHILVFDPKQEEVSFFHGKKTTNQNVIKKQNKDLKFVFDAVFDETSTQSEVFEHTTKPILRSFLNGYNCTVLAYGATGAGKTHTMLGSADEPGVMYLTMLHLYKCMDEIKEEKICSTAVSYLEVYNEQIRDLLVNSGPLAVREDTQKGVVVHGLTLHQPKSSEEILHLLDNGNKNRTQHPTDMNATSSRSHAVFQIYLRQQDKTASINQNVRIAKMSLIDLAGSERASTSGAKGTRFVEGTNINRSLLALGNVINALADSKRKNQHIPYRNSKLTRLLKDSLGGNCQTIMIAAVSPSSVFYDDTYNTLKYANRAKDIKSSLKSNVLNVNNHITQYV
Chain of KIF18a-microtubule complex (Q8NI77 1-374, one chain of several): as the sequence (Q8NI77 1-374) above

| IC50 [1] | IC50 ([2]; 168 h, HCC15, 7 days) | IC50 [4, 7] | SMILES | IC50 [3, 6] | further results |
| --- | --- | --- | --- | --- | --- |
| 0.011 µM | 0.01 µM | 0.014 µM | Cc1cc(-c2cn(-c3ccc(NS(=O)(=O)CCO)cc3N3CCC4(CC3)CC4)nn2)nc(N2CC3C(C2)C3(F)F)n1 (stereo not shown) [Compound 73, N-(4-(4-(2-(6,6-difluoro-3-azabicyclo[3.1.0]hexan-3-yl)-6-methylpyrimidin-4-yl)-1H-1,2,3-triazol-1-yl)-3-(6-azaspiro[2.5]octan-6-yl)phenyl)-2-hydroxyethane-1-sulfonamide] | 0.042 µM |  |
| 0.021 µM | 0.034 µM | 0.051 µM | Cc1cc(-c2cn(-c3ccc(NS(=O)(=O)CCO)cc3N3CCC(C)CC3)nn2)nc(N2CCC(F)(F)CC2)n1 [Compound 89, N-(4-(4-(2-(4,4-difluoropiperidin-1-yl)-6-methylpyrimidin-4-yl)-1H-1,2,3-triazol-1-yl)-3-(4-methylpiperidin-1-yl)phenyl)-2-hydroxyethane-1-sulfonamide] | 0.048 µM |  |
| 0.0044 µM | 0.017 µM | 0.028 µM | O=S(=O)(CCO)Nc1ccc(-c2cn(-c3cncc(N4CCC(F)(F)CC4)n3)nn2)c(N2CCC3(CC2)CC3)c1 [Compound 96, N-(4-(1-(6-(4,4-difluoropiperidin-1-yl)pyrazin-2-yl)-1H-1,2,3-triazol-4-yl)-3-(6-azaspiro[2.5]octan-6-yl)phenyl)-2-hydroxyethane-1-sulfonamide] | 0.044 µM |  |
| 0.025 µM | 0.12 µM | 0.12 µM | CS(=O)(=O)Nc1ccc(-c2cn(-c3cccc(N4CCC(F)(F)CC4)c3)nn2)c(N2CCC3(CC2)CC3)c1 [Compound 64, N-(4-(1-(3-(4,4-difluoropiperidin-1-yl)phenyl)-1H-1,2,3-triazol-4-yl)-3-(6-azaspiro[2.5]octan-6-yl)phenyl)methanesulfonamide] | 0.12 µM |  |
| 0.027 µM | 0.043 µM | 0.049 µM | Cc1cc(-n2cc(-c3ccc(NS(=O)(=O)CCO)cc3N3CCC4(CC3)CC4)nn2)nc(N2CCC(F)(F)CC2)n1 [Compound 87, N-(4-(1-(2-(4,4-difluoropiperidin-1-yl)-6-methylpyrimidin-4-yl)-1H-1,2,3-triazol-4-yl)-3-(6-azaspiro[2.5]octan-6-yl)phenyl)-2-hydroxyethane-1-sulfonamide] | 0.09 µM |  |
| 0.01 µM | 0.012 µM | 0.013 µM | O=S(=O)(CCO)Nc1ccc(-c2cn(-c3cccc(N4CCC(F)(F)CC4)n3)nn2)c(N2CCC3(CC2)CC3)c1 [Compound 71, N-(4-(1-(6-(4,4-difluoropiperidin-1-yl)pyridin-2-yl)-1H-1,2,3-triazol-4-yl)-3-(6-azaspiro[2.5]octan-6-yl)phenyl)-2-hydroxyethane-1-sulfonamide] | 0.02 µM |  |
|  | 0.016 µM | 0.025 µM | Cc1cc(-c2cn(-c3ccc(NS(=O)(=O)CCO)cc3N3CCC4(CC3)CC4)nn2)nc(N2CCC(F)(F)CC2)c1 [Compound 72, N-(4-(4-(6-(4,4-difluoropiperidin-1-yl)-4-methylpyridin-2-yl)-1H-1,2,3-triazol-1-yl)-3-(6-azaspiro[2.5]octan-6-yl)phenyl)-2-hydroxyethane-1-sulfonamide] | 0.024 µM |  |
| 0.038 µM | 0.037 µM | 0.051 µM | Cc1cc(N2CCC(F)(F)CC2)nc(-n2cc(-c3ccc(NS(=O)(=O)CCO)cc3N3CCC4(CC3)CC4)nn2)c1 [Compound 95, N-(4-(1-(6-(4,4-difluoropiperidin-1-yl)-4-methylpyridin-2-yl)-1H-1,2,3-triazol-4-yl)-3-(6-azaspiro[2.5]octan-6-yl)phenyl)-2-hydroxyethane-1-sulfonamide] | 0.068 µM |  |
| 0.032 µM | 0.018 µM | 0.025 µM | CCS(=O)(=O)Nc1ccc(-n2cc(-c3cc(C)nc(N4CCC(F)(F)CC4)n3)nn2)c(N2CCC3(CC2)CC3)c1 [Compound 106, N-(4-(4-(2-(4,4-difluoropiperidin-1-yl)-6-methylpyrimidin-4-yl)-1H-1,2,3-triazol-1-yl)-3-(6-azaspiro[2.5]octan-6-yl)phenyl)ethanesulfonamide] | 0.024 µM |  |

The remaining lines, values behind:

| SMILES | IC50 [1] | IC50 ([2]; 168 h, HCC15, 7 days) | IC50 [4, 7] | IC50 [3, 6] | further results |
| --- | --- | --- | --- | --- | --- |
| CS(=O)(=O)Nc1ccc(-n2cc(-c3cccc(S(=O)(=O)N4CC(F)(F)C4)c3)nn2)c(N2CCC3(CC2)CC3)c1 [Compound 13, N-(4-(4-(3-((3,3-difluoroazetidin-1-yl)sulfonyl)phenyl)-1H-1,2,3-triazol-1-yl)-3-(6-azaspiro[2.5]octan-6-yl)phenyl)methanesulfonamide] | 0.0072 µM | 0.003 µM | 0.0045 µM | 0.0047 µM |  |
| Cc1cc(NC(=O)c2ccc(NS(=O)(=O)CCO)cc2N2CCC3(CC2)CC3)nc(N2CCC(F)(F)CC2)n1 [AMG650, 2-(6-azaspiro[2.5]octan-6-yl)-N-[2-(4,4-difluoropiperidin-1-yl)-6-methylpyrimidin-4-yl]-4-(2-hydroxyethanesulfonamido)benzamide, reference compound] |  |  |  |  | IC50 ([2]; HCC15, 168 h): 0.066 µM; IC50 ([3]; Homo sapiens, JIMT-1, 168 h): 0.13 µM; IC50 ([4]; Homo sapiens, OVCAR-3, 168 h): 0.1 µM |
| O=S(=O)(Nc1ccc(-n2cc(-c3cccc(N4CCC(F)(F)CC4)n3)nn2)c(N2CCC3(CC2)CC3)c1)C1(CO)CC1 [Compound 62, N-(4-(4-(6-(4,4-difluoropiperidin-1-yl)pyridin-2-yl)-1H-1,2,3-triazol-1-yl)-3-(6-azaspiro[2.5]octan-6-yl)phenyl)-1-(hydroxymethyl)cyclopropane-1-sulfonamide] | 0.018 µM | 0.013 µM | 0.013 µM | 0.0095 µM |  |
| O=S(=O)(CCO)Nc1ccc(-n2cc(-c3cccc(C(O)C4CCCC4)n3)nn2)c(N2CCC3(CC2)CC3)c1 (single isomer, unassigned) [Compound 90a] | 0.0052 µM |  |  |  | IC50 ([2]; HCC15, 7 days): 0.0074 µM; IC50 ([3]; JIMT-1, 7 days): 0.011 µM; IC50 ([4]; NIH:OVCAR3, 7 days): 0.014 µM |
| CCS(=O)(=O)Nc1ccc(-n2cc(-c3cccc(S(=O)(=O)NC(C)(C)C)c3)nn2)c(N2CCC3(CC2)CC3)c1 [Compound 116, N-(tert-butyl)-3-(1-(4-(ethylsulfonamido)-2-(6-azaspiro[2.5]octan-6-yl)phenyl)-1H-1,2,3-triazol-4-yl)benzenesulfonamide] | 0.014 µM | 0.0036 µM | 0.0039 µM | 0.0063 µM |  |
| Cc1cc(-c2cn(-c3ccc(NS(=O)(=O)C4(CO)CC4)cc3N3CCCCC3)nn2)nc(N2CCC(F)(F)CC2)n1 [Compound 91, N-(4-(4-(2-(4,4-difluoropiperidin-1-yl)-6-methylpyrimidin-4-yl)-1H-1,2,3-triazol-1-yl)-3-(piperidin-1-yl)phenyl)-1-(hydroxymethyl)cyclopropane-1-sulfonamide] | 0.036 µM | 0.029 µM | 0.04 µM | 0.035 µM |  |
| CS(=O)(=O)Nc1ccc(-c2nnc(-c3cccc(N4CCOCC4)n3)[nH]2)c(N2CCC3(CC2)CC3)c1 [Compound 2, N-(4-(5-(6-morpholinopyridin-2-yl)-4H-1,2,4-triazol-3-yl)-3-(6-azaspiro[2.5]octan-6-yl)phenyl)methanesulfonamide] | 0.014 µM | 0.13 µM |  | 0.48 µM | kon (on-rate from binding kinetics assay) ([5]; KIF18A 0.25 nM, up to 24 hr): 3890 M⁻¹ s⁻¹; koff ([5]; KIF18A 0.25 nM, up to 24 hr, read-out: koff (off-rate from binding kinetics assay) (converted)): 3.61e-05 s⁻¹; Ki ([5]; koff/kon, read-out: KI (determined from binding kinetic assay koff/kon)): 0.0089 µM; disc. t1/2 (dissociation half-life ln(2)/koff) ([5]; ln(2)/koff): 5.5 h |
| CCS(=O)(=O)Nc1ccc(-c2cn(-c3cccc(S(=O)(=O)NC(C)(C)C)c3)nn2)c(N2CCC3(CC2)CC3)c1 [Compound 110, N-(tert-butyl)-3-(4-(4-(ethylsulfonamido)-2-(6-azaspiro[2.5]octan-6-yl)phenyl)-1H-1,2,3-triazol-1-yl)benzenesulfonamide] | 0.015 µM | 0.0033 µM | 0.0044 µM | 0.0068 µM |  |
| CCS(=O)(=O)Nc1cc(N2CCC3(CC2)CC3)c(-n2cc(-c3cccc(S(=O)(=O)NC(C)(C)C)c3)nn2)cc1F [Compound 117, N-(tert-butyl)-3-(1-(4-(ethylsulfonamido)-5-fluoro-2-(6-azaspiro[2.5]octan-6-yl)phenyl)-1H-1,2,3-triazol-4-yl)benzenesulfonamide] | 0.02 µM | 0.01 µM | 0.013 µM | 0.014 µM |  |
